Results published in patent US5827715A, “Heat resistant maltose phosphorylase, process for preparation thereof, bacteria used for preparation thereof, and methods for using the enzyme” (Showa Sangyo Co., Ltd., priority 1995, dated 1998).
Where two headings read alike, the source gives them in different places.

How the values were obtained:
[1] = molecular target: T1, heat resistant maltose phosphorylase (Bacillus sp. RK-1, UniProt Q84IX5); assay: Inhibitor test on heat resistant maltose phosphorylase activity; assay type: biochemical; settings: for activity at 1000 µM: read-out: Relative activity (%); for inhibition of the activity: 1 mM inhibitor, heat resistant maltose phosphorylase
T1 sequence (Q84IX5 entry or part of it, change not shown): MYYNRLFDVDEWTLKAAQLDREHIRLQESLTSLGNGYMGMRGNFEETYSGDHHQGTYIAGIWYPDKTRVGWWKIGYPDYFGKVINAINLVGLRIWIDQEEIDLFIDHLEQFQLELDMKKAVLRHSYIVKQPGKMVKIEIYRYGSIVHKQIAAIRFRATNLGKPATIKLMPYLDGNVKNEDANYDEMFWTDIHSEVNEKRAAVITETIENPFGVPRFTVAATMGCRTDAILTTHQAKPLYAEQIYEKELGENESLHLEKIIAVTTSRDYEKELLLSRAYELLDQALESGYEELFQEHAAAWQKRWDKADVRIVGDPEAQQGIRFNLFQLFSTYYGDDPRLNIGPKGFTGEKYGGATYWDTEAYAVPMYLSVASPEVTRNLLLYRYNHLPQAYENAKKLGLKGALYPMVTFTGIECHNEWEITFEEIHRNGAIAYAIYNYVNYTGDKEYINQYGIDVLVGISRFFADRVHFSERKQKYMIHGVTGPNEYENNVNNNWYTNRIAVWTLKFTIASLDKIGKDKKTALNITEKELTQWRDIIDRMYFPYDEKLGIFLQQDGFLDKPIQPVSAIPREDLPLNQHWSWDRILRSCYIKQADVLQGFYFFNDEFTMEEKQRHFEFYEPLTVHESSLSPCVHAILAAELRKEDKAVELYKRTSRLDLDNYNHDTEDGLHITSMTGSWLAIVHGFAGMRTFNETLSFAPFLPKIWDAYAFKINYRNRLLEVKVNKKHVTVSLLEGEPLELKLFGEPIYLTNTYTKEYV
Protocol: (§1) The enzymological properties of the heat resistant maltose phosphorylase of the invention are as follows. As the heat resistant maltose phosphorylase,one obtained in Example 1 and prepared from Bacillus sp. RK-1 was used.
(§2) In this connection, maltose phosphorylase activity was assayed according to the following method. An enzyme solution (0.4 ml), 0.06 ml of 0.5M potassium phosphate-citric acid buffer (pH 6.0), 0.6 ml of 2 w/v % maltose and 0.14 ml of distilled water were mixed, and reaction was carried out at 60° C. for 15 minutes and ceased by boiling for 10 minutes. Then, 0.02 ml of a sample was taken from the reaction-ceased solution, 3 ml of a reagent for glucose examination (Glucose CII-Test Wako; Wako Pure Chemical Industries, Ltd.) was added, reaction was carried at room temperature for 20 minutes, the absorbance at 505 nm was measured using a spectrophotometer, and the amount of glucose formed in the reaction solution was determined from the measured value. From the amount of the formed glucose, the amount of the enzyme necessitated to phosphorolyze 1 μmol of maltose in one minute is calculated, and was assumed to be 1 unit.

[2] = molecular target: T2, heat resistant trehalose phosphorylase (Geobacillus stearothermophilus, UniProt Q8GRC3); assay: biochemical; assay type: biochemical, Bacillus stearothermophilus SK-1; settings: for activity at 1000 µM: read-out: Relative activity (%); for inhibition of the activity: 1 mM inhibitor, heat resistant trehalose phosphorylase
T2 construct: heat resistant trehalose phosphorylase which Bacillus stearothermophilus SK-1 found by the present inventors produces; made in house; host or cells: Bacillus stearothermophilus SK-1 (FERM BP-5594), the producing strain itself
T2 sequence (Q8GRC3 whole entry, change not shown): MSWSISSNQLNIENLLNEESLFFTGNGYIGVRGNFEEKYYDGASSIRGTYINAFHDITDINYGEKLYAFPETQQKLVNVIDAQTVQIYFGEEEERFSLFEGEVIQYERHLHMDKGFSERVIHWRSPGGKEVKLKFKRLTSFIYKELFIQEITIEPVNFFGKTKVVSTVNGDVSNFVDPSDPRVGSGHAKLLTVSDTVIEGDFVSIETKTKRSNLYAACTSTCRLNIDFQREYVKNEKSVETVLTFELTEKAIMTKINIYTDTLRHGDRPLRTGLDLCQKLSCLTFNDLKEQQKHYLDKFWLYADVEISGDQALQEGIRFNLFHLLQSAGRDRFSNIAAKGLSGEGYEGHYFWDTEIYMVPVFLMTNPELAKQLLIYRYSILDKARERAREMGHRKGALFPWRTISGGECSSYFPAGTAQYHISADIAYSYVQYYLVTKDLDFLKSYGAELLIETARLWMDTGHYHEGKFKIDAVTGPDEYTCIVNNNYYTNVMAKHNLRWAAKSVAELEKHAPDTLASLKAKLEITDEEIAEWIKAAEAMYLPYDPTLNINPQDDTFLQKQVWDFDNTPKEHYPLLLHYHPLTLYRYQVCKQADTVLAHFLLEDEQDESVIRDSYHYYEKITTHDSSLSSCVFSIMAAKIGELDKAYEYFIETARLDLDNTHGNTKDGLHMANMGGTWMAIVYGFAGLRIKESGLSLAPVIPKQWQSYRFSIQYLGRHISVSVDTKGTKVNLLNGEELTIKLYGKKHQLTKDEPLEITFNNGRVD
Description: As the heat resistant maltose phosphorylase in the above process, there can be used the same ones as in the above process for preparation of β-glucose-1-phosphoric acid can be used. As the heat resistant trehalose phosphorylase, any one can be used so long as it can produce trehalose from maltose and phosphoric acid or a phosphate salt at one of the above reaction temperatures and at one of the above pH values, with the aid of the heat resistant maltose phosphorylase. […] The SK-1 strain was first deposited on Sep. 29, 1994 with National Institute of Bioscience and Human Technology, Agency of Industrial Science and Technology, the Ministry of International Trade and Industry, Japan under an accession number of FERM P-14567, and then transferred there to deposit according to Budapest Treaty on microorganisms on Jul. 17, 1996, and is assigned an accession number of FERM BP-5594. An example of preparation of the above heat resistant trehalose phosphorylase is shown in Example 4 (crude enzyme) and Reference example 1 (purified enzyme).
(§3) In this connection, trehalose phosphorylase activity was assayed by the following method. An enzyme solution (0.4 ml), 0.06 ml of 0.5M potassium phosphate-citric acid buffer (pH 6.0), 0.6 ml of 2 w/v % trehalose and 0.14 ml of distilled water were mixed, and reaction was carried out at 60° C. for 20 minutes and ceased by boiling for 10 minutes. Then, 0.02 ml of a sample was taken from the reaction-ceased solution, 3 ml of a reagent for glucose examination (Glucose CII-Test Wako; Wako Pure Chemical Industries, Ltd.) was added, reaction was carried out at room temperature for 20 minutes, the absorbance at 505 nm was measured using a spectrophotometer, and the amount of glucose formed in the reaction solution was determined from the measured value. As to the definition of the trehalose phosphorylase activity, the amount of the enzyme necessitated to phosphorolyze 1 μmol of trehalose in one minute under the above assay conditions was assumed to be 1 unit.

[3] = molecular target: T1, heat resistant maltose phosphorylase; assay: Substrate specificity of heat resistant maltose phosphorylase (phosphorolysis reaction, glucose formed); assay type: biochemical; design: Relative activity (%): concentration or dose not given beside the values; settings: for Relative activity (%): each substance as substrate of phosphorolysis by heat resistant maltose phosphorylase, maltose = 100; for formation of glucose: phosphorolysis reaction with the substance as substrate, heat resistant maltose phosphorylase
Protocol: as §1, §2

[4] = molecular target: T2, heat resistant trehalose phosphorylase; assay: Substrate specificity of heat resistant trehalose phosphorylase (phosphorolysis reaction, glucose formed); assay type: biochemical, Bacillus stearothermophilus SK-1; design: Relative activity (%): concentration or dose not given beside the values; settings: for Relative activity (%): each substance as substrate of phosphorolysis by heat resistant trehalose phosphorylase, trehalose = 100; for formation of glucose: phosphorolysis reaction with the substance as substrate, heat resistant trehalose phosphorylase
Description: As the heat resistant maltose phosphorylase in the above process, there can be used the same ones as in the above process for preparation of β-glucose-1-phosphoric acid can be used. As the heat resistant trehalose phosphorylase, any one can be used so long as it can produce trehalose from maltose and phosphoric acid or a phosphate salt at one of the above reaction temperatures and at one of the above pH values, with the aid of the heat resistant maltose phosphorylase. However, there can, preferably, be used heat resistant trehalose phosphorylase having an activity of 95% or more of the one untreated after treated in a buffer of pH 6.0, at one temperature of 50° to 65° C., preferably at one temperature of 55° to 65° C., further preferably at one temperature of 60° to 65° C., particularly preferably at 65° C., for 15 minutes. As an example of heat resistant trehalose phosphorylase having such a property, there can be mentioned heat resistant trehalose phosphorylase which Bacillus stearothermophilus SK-1 found by the present inventors produces. The SK-1 strain was first deposited on Sep. 29, 1994 with National Institute of Bioscience and Human Technology, Agency of Industrial Science and Technology, the Ministry of International Trade and Industry, Japan under an accession number of FERM P-14567, and then transferred there to deposit according to Budapest Treaty on microorganisms on Jul. 17, 1996, and is assigned an accession number of FERM BP-5594. An example of preparation of the above heat resistant trehalose phosphorylase is shown in Example 4 (crude enzyme) and Reference example 1 (purified enzyme). The enzymological properties of this purified enzyme are as follows.
as §3

[5] = maltose phosphorylase activity with 1 mM inhibitor, no addition = 100
[6] = trehalose phosphorylase activity with 1 mM inhibitor, no addition = 100

Row | Molecule | Relative activity (%) [1, 5] | Relative activity (%) [2, 6] | Relative activity (%) [3] | Relative activity (%) [4] | further results
1 | O[C@H](CS)[C@H](O)CS (racemic) [DTT, Dithiothreitol] | – | – | – | – | activity at 1000 µM [1, 5]: 101%; activity at 1000 µM [2, 6]: 86%
2 | [Ba+2].[OH-].[OH-] [Ba (OH)2] | 100% | 106% | – | – | –
3 | [Ca+2].[Cl-].[Cl-] [CaCl2] | 101% | 102% | – | – | –
4 | OC[C@H]1O[C@@H](O[C@H]2[C@H](O)[C@@H](O)C(O)O[C@@H]2CO)[C@H](O)[C@@H](O)[C@@H]1O (stereo partly drawn) [Cellobiose] | – | – | 0% | 2% | formation of glucose [3]: scarcely observed; formation of glucose [4]: scarcely observed
5 | O=S(=O)([O-])[O-].[Cu+2] [CuSO4] | 91% | 89% | – | – | –
6 | O=[N+]([O-])c1ccc(O[C@H]2O[C@H](CO)[C@@H](O)[C@H](O)[C@H]2O)cc1 [D - glucosideyl - α, p-nitrophenyl-α-D-glucoside] | – | – | 0% | 2% | formation of glucose [3]: scarcely observed; formation of glucose [4]: scarcely observed
7 | O=[N+]([O-])c1ccc(O[C@@H]2O[C@H](CO)[C@@H](O)[C@H](O)[C@H]2O)cc1 [D - glucosideyl - β, p-nitrophenyl-β-D-glucoside] | – | – | 0% | 2% | formation of glucose [3]: scarcely observed; formation of glucose [4]: scarcely observed
8 | O=C(O)CN(CCN(CC(=O)O)CC(=O)O)CC(=O)O [EDTA.2Na] | – | – | – | – | activity at 1000 µM [1]: 100%
9 | O=C(O)CN(CCN(CC(=O)O)CC(=O)O)CC(=O)O [EDTA] | – | – | – | – | activity at 1000 µM [2]: 99%
10 | [Cl][Fe][Cl] [FeCl2] | 94% | 96% | – | – | –
11 | OC[C@H]1O[C@@H](OC[C@H]2OC(O)[C@H](O)[C@@H](O)[C@@H]2O)[C@H](O)[C@@H](O)[C@@H]1O (stereo partly drawn) [Gentiobiose] | – | – | 2% | – | –
12 | [Cl][Hg][Cl] [HgCl2] | 1% | 1% | – | – | inhibition of the activity [1]: 99%; inhibition of the activity [2]: 99%
13 | OC[C@H]1O[C@H](OC[C@H]2OC(O)[C@H](O)[C@@H](O)[C@@H]2O)[C@H](O)[C@@H](O)[C@@H]1O (stereo partly drawn) [Isomaltose] | – | – | 2% | 3% | formation of glucose [3]: scarcely observed; formation of glucose [4]: scarcely observed
14 | OC[C@H]1O[C@@H](O[C@H]2[C@H](O)[C@@H](O)C(O)O[C@@H]2CO)[C@H](O)[C@@H](O)[C@H]1O (stereo partly drawn) [Lactose] | – | – | 0% | – | –
15 | OC[C@H]1O[C@H](O[C@H]2[C@H](O)[C@@H](O)[C@H](O)O[C@@H]2CO)[C@H](O)[C@@H](O)[C@@H]1O [Maltose] | – | – | 100% | 1% | formation of glucose [4]: scarcely observed
16 | OCCS [Mercaptoethanol] | – | – | – | – | activity at 1000 µM [1, 5]: 94%; activity at 1000 µM [2, 6]: 96%
17 | [Cl-].[Cl-].[Mg+2] [MgCl2] | 100% | 103% | – | – | –
18 | O=S(=O)([O-])[O-].[Mn+2] [MnSO4] | 111% | 108% | – | – | –
19 | OC[C@H]1O[C@@H](O[C@H]2O[C@H](CO)[C@@H](O)[C@H](O)[C@H]2O)[C@H](O)[C@@H](O)[C@@H]1O [Neotrehalose] | – | – | 0% | 1% | formation of glucose [3]: scarcely observed; formation of glucose [4]: scarcely observed
20 | O=C(O)c1cc[c]([Hg][Cl])cc1 [PCMB, p (Chloromercuri) benzoic acid] | 20% | 0% | – | – | –
21 | CC(=O)[O-].CC(=O)[O-].[Pb+2] [Pb (CH3 COO)2] | 99% | 93% | – | – | –
22 | OC[C@H]1O[C@@](CO)(O[C@H]2O[C@H](CO)[C@@H](O)[C@H](O)[C@H]2O)[C@@H](O)[C@@H]1O [Sucrose] | – | – | 0% | 1% | formation of glucose [3]: scarcely observed; formation of glucose [4]: scarcely observed
23 | OC[C@H]1O[C@H](O[C@H]2O[C@H](CO)[C@@H](O)[C@H](O)[C@H]2O)[C@H](O)[C@@H](O)[C@@H]1O [Trehalose] | – | – | 0% | 100% | formation of glucose [3]: scarcely observed
24 | O=S(=O)([O-])[O-].[Zn+2] [ZnSO4] | 63% | 20% | – | – | inhibition of the activity [1]: 37%; inhibition of the activity [2]: 80%
25 | Soluble starch | – | – | 2% | – | –
